According to US20150183791A1, “IMIDAZO[1,2-b]PYRIDAZINE-BASED COMPOUNDS, COMPOSITIONS COMPRISING THEM, AND METHODS OF THEIR USE” (LEXICON PHARMACEUTICALS, INC., priority 2013, published 2015):
pIC50: −log10 of the molar value.

Legend:
[1] = target: AAK1 (full-length human protein) (Homo sapiens, UniProt Q2M2I8); experiment: P81 filter plate assay; type: biochemical
Protocol: Compounds were serially diluted into a Labcyte LDV plate (Labcyte, cat# LP-0200) using a Mutiprobe (PerkinElmer) and Biomek FX (Beckman Coulter) so that the highest compound concentration was at 96 μM. Compounds were then pinged (75 nL per well) into a Greiner 384-well reaction plate (Greiner, #781076) using an ECHO 550 Liquid Handler (Labcyte). A total of 12 μl reaction buffer (IMAP buffer containing Tween and DTT, from Molecular Devices) was then added to each well of columns 1 and 13 for the negative controls and 12 μl of 2×AAK1 (0.2 nM full-length human protein, NCBI accession no. NP_055726.2) was added to the remaining wells. Enzyme was then pre-incubated with compound for 10 minutes at room temperature. Reactions were initiated upon Minitrak (PerkinElmer) addition of 12 μl substrate mix containing 2× Mu2 (0.2 μM, full length human protein), 2× cold ATP (2 μM), and 1.3 μCi of hot ^33P-ATP. Reactions proceeded for one hour at room temperature. Meanwhile, Millipore 384-well P81 filter plates (Millipore, catalog # MZPHN0 W10) were placed on a plate washer (Zoom ZW, from Titertek) and pre-wet with 50 μl 1% phosphoric acid. Kinase reactions were then stopped upon addition of 24 μl of 2% phosphoric acid to each well and the Minitrak was then used to transfer 40 μl from each well into the pre-wet Millipore 384-well P81 filter plates. Reaction mixtures were incubated for 10 minutes at room temperature in the P81 plates, followed by washing five times with 100 μl/well of 1% phosphoric acid using the Zoom filter washer. The bottom of each filter plate was sealed followed by addition of 20 μl Microscint 40 to each well, sealing the top of the plates with Flashplate cover, and then waiting one hour until reading on the TopCount (Perkin Elmer).

[2] = target: T1, AAK1 (full length human) transfected with Flag/AP2MI in HEK293F cells; phospho-mu2 (Homo sapiens, UniProt Q2M2I8); experiment: HEK281 cell-based assay; conditions: HEK293F cells transfected with human AAK1 and AP2M1, 3 hours with compound, phospho-mu2 Western blot normalized to total Mu2
T1 construct: HA; expressed in transfected cells; host or cells: HEK293F
Protocol: HEK293F cells were cultured in media containing DMEM (Gibco, cat. #11965), 10% FBS (SAFC Biosciences, cat. #12103C), 1×GPS (glutamine, penicillin and streptomycin). On day one, cells were plated on a 10 cm dish so that they are ˜80% confluent at time of transfection. Roughly 12 million cells were in a 10 cm dish at time of transfection. On day two, each dish was transfected with 48 ug DNA and 144 ul Lipofectamine 2000 (Invitrogen, cat.#11668-019). The DNA was comprised of a mixture (per 10 cm dish) containing 3 ug AAK1/HA/pIRES (full length human, NCBI accession no. NP_055726.2), 45 μg Flag/AP2MI/pcDNA (full length human), and 1.5 ml OPTI-MEM. The Lipofectamine 2000 is made up of a mixture (per 10 cm dish) containing 144 μl Lipofectamine 2000 and 1.5 ml OPTI-MEM. Each mixture was transferred to individual 15 ml tubes and incubated at room temperature for 5 minutes, and then the two mixes were combined and incubated at room temperature for 20 minutes. Growth media was then aspirated from each 10 cm plate and replaced with 10 ml of DMEM+10% FBS (no GPS). Finally, 3 ml DNA/Lipofectamine mix was added to each 10 cm dish and mix gently followed by incubate of plate overnight at 37° C. and 5% CO2.
On day three, compounds were diluted in 100% DMSO at 1000× final concentration, followed by 3-fold serial dilutions for a total of 5 concentrations tested. Four compounds were tested per 10 cm dish. One ul of each compound dilution was then pipetted into a deep-well, 96-well plate, followed by addition of 500 μl DMEM+0.5% FBS into each well for a 2× final concentration of each compound. Cells were resuspended in a 10 cm dish by simple pipetting (HEK293 cells come off the plate that easy at this point) and then transferred to a 50 ml conical tube and pelleted by centrifugation at 1000 rpm for 5 min. Cell pellets were then resuspended in 2.75 ml DMEM+0.5% FBS per 10 cm dish and 100 μl of cell suspension transferred into each well of 96-well TC plate. Finally, 100 μl of 2× compound diluted in DMEM+0.5% FBS was then added into wells containing cell suspension for a 1× final concentration. Plates were then incubated at 37° C. and 5% CO2 for 3 hours followed by transferring of cell suspensions from each well into 12-tube PCR strips. The PCR strips were spun in a tip rack at 1000 rpm for 5 minutes to pellet cells and media was then removed by pipetting without disturbing the cell pellet.
To prepare for Western Blot analysis, cell pellets were resuspend in 40 ul 1×LDS-PAGE sample buffer (Invitrogen, cat.# NP0008) +2× Halt phophatase and protease inhibitor cocktail (Thermo Scientific, cat.#1861284), followed by sonicating each with microtip sonicator set at 5 for 8-10 seconds. Five ul of 10× NuPage Sample Reducing Agent (with […]) was to each sample followed by heat denaturing at 70 C for 10 min on PCR machine. A total of 10 μl per sample was loaded into each lane of a 4-20% Tris-Glycine Criterion 26-well gel (Biorad, cat.#345-0034) for the phospho-mu2 blot and 10 μl per lane in a 4-12% Bis-Tris (+MES buffer) NuPAGE 26-well gel (Invitrogen, cat.# WG1403BX10) for the mu2 blot. For controls, 2 ng of phospho-mu2 or 20 ng mu2/Flag proteins were loaded in the last well of each gel. After SDS-PAGE, samples on each gel were transferred to PVDF membrane using an iBlot and membranes were blocked for one hour in TBST+5% milk, followed by wash 3× for 5-10 min with TBST. Criterion gels were probed with rabbit anti-phospho-mu2 (1:5000; a rabbit polyclonal antibody produced by New England Peptide and affinity purified at Lexicon) in TBST+5% BSA, whereas, NuPAGE gels were probed with mouse anti-Flag (1:500; Sigma, cat.# F1804) in TBST+5% milk, and these primary antibodies were incubated overnight at 4° C. on a rocker. […]

[3] = 0.2 nM-scale full-length human AAK1, Mu2 substrate, 33P-ATP, one hour at room temperature, class symbols

T1 sequence (Q2M2I8 1-863 isoform Q2M2I8-2): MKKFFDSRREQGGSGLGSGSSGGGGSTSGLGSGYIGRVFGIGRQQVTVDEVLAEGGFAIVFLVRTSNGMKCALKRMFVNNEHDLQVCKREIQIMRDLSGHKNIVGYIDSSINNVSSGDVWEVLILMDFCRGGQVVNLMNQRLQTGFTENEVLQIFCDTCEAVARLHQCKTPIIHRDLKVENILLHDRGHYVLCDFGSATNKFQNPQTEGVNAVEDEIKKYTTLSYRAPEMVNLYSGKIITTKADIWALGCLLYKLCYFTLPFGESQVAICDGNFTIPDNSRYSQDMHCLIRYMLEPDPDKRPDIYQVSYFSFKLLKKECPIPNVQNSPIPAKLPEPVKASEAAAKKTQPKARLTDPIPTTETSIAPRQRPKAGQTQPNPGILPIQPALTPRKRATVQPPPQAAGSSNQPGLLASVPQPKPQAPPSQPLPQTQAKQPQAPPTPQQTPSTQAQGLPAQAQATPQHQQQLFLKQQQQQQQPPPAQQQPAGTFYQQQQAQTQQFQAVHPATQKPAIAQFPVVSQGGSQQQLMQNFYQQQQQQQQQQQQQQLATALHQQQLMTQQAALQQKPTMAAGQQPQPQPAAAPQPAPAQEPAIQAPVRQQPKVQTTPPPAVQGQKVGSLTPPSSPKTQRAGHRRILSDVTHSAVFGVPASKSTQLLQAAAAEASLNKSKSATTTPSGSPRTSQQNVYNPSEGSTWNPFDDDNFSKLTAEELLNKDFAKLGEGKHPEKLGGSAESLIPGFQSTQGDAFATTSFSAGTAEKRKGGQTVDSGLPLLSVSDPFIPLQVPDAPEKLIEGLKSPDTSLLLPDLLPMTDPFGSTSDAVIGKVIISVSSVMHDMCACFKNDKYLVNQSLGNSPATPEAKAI
AAK1 (full-length human protein), sequence (Q2M2I8 1-863 isoform Q2M2I8-2): as above

Row | pIC50 [1, 3] | pIC50 ([1]; same assay, given as numeric bound instead of class symbol) | SMILES | CBA IC50 [2]
1 | ≥ 8.00 | – | CNC(=O)c1ccc(-c2cnc3ccc(-c4cccc(C(=O)NCC(C)C)c4)nn23)cc1 [N-isobutyl-3-(3-(4-(methylcarbamoyl)phenyl)imidazo[1,2-b]pyridazin-6-yl)benzamide] | * (“*” means less than or equal to 1.0 μM)
2 | – | < 6.52 | CC(C)CNC(=O)c1cccc(-c2ccc3ncc(-c4ccncc4)n3n2)c1 [N-isobutyl-3-(3-(pyridin-4-yl)imidazo[1,2-b]pyridazin-6-yl)benzamide] | * (“*” means less than or equal to 1.0 μM)
3 | ≥ 8.00 | – | CC(C)CNC(=O)c1cncc(-c2ccc3ncc(-c4ccc(CN)cc4)n3n2)c1 [5-(3-(4-(Aminomethyl)phenyl)imidazo[1,2-b]pyridazin-6-yl)-N-isobutylnicotinamide] | ** (“**” means a value of less than or equal to 0.1 μM)
4 | ≥ 8.00 | – | COc1cnccc1-c1cnc2ccc(-c3cccc(C(=O)NCC(C)C)c3)nn12 [N-isobutyl-3-(3-(3-methoxypyridin-4-yl)imidazo[1,2-b]pyridazin-6-yl)benzamide] | * (“*” means less than or equal to 1.0 μM)

The remaining lines, values behind:

Row | SMILES | pIC50 [1, 3] | pIC50 ([1]; same assay, given as numeric bound instead of class symbol) | CBA IC50 [2]
5 | CC(=O)c1cccc(-c2ccc3ncc(-c4ccc(CN)cc4)n3n2)c1 [1-(3-(3-(4-(Aminomethyl)phenyl)imidazo[1,2-b]pyridazin-6-yl)phenyl)ethanone] | ≥ 8.00 | – | ** (“**” means a value of less than or equal to 0.1 μM)
6 | CC(C)CNC(=O)c1cccc(-c2ccc3ncc(-c4ccc(CN)cc4)n3n2)c1 [3-(3-(4-(Aminomethyl)phenyl)imidazo[1,2-b]pyridazin-6-yl)-N-isobutylbenzamide] | ≥ 8.00 | – | ** (“**” means a value of less than or equal to 0.1 μM)
7 | CC(C)CCC(=O)c1cccc(-c2ccc3ncc(-c4ccc(CN)cc4)n3n2)c1 [1-(3-(3-(4-(Aminomethyl)phenyl)imidazo[1,2-b]pyridazin-6-yl)phenyl)-4-methylpentan-1-one] | ≥ 8.00 | – | ** (“**” means a value of less than or equal to 0.1 μM)
8 | CCCCCc1ccc2ncc(-c3ccc(C(C)=O)s3)n2n1 [1-(5-(6-Pentylimidazo[1,2-b]pyridazin-3-yl)thiophen-2-yl)ethanone] | – | – | * (“*” means less than or equal to 1.0 μM)
